From patent US7442547B2, “Dendritic cells and the uses thereof in screening cellular targets and potential drugs” (Sekmed, S.R.L., priority 2001, dated 2008)

Tested on: DC (D1, D8, BMDC/RAG2−/−)
Experiment: IL-2 production by DC after stimulation in vitro (IL-2 ELISA of supernatant)
Type: cell-based, mouse
Conditions: splenic (D1) and bone marrow-derived DC (D8, BMDC/RAG2−/−), long- and short-term lines
Description: Antibodies and Reagents. LPS (E. Coli 026:B6, used at 10 μg/ml) and zymosan (used at 10 μg/ml) were obtained from Sigma Chem. (St. Louis, Mo.). rTNF, (San Francisco) and rIL-1. (Genzyme, Cambridge Mass.) were used at 100 U/ml and 10 μg/ml respectively. IFN was kindly provided by Schering-Plough (Dardilli, Fr.) and used at 1000 U/ml. CpG ([…])(SEQ ID NO. 5) and CpG control ([…]) (SEQ ID NO. 6) oligos were purchased from Life Technologies and used at a concentration of 1 µM. PE-conjugated anti-IL-2, PE-conjugated rat Isotype control, biotinilated anti-CD8α and FITC-conjugated anti-CD11c monoclonal antibodies were purchased from Pharmingen. Quantum-red-conjugated streptavidin was obtained from Sigma. Anti-I-A^d/I-E^d mAb (clone M5 /114, rat IgG2b) was kindly provided by Dr. A. Ager (NIMR, London, UK). FITC-conjugated anti-rat was from Jackson ImmunoResearch (West Grove, Pa.). Anti-CD40 antibody [clone FGK45 (10)] was used at a concentration of 20 μg/ml and crosslinked with a monoclonal anti-rat antibody (10 μg/ml, PharMingen).
DC and culture medium. D1 and D8.1 long term DC were cultured in IMDM (Sigma, St. Louis, Mo.) containing 10% heat-inactivated fetal bovine serum (GIBCO), 100 IU penicillin, 100 μg/ml streptomycin, 2 mM L-glutamine (all from Sigma), and 50 μM 2-mercaptoethanol (complete IMDM) with 30% supernatant from R1 medium [supernatant from NIH3T3 fibroblasts transfected with GM-CSF].
Fresh BMDCRAG2−/− were derived from RAG2−/− BALB/c or C57BL/6 bone marrow cells. Usually bone marrow cells cultured for two days and frozen. BMDCRAG2−/− were obtained from defrost cells after 7 days of culture in medium containing 10% of supernatant of GM-CSF transduced B16 tumor cells. BMDCRAG2−/− were used for activation only if they were immature, as judged by low B7.2 and CD40 expression.
IL-2 ELISA. IL-2 ELISA was performed using the DuoSet kit (R and D, Minneapolis, Minn.) and following the manufacturer recommendations. […]

| Substance | induction of IL-2 production/secretion by DC |
| --- | --- |
| CpG: oligo DNA containing the unmethylated CpG motif, TCCATGACGTTCCTGATGCT (SEQ ID NO. 5), recognized by TLR9 (listed as DNA, further chemistry not given here) | efficient in stimulating DC to secrete IL-2 |
| IL-1 β: inflammatory cytokine (Genzyme) | none of the inflammatory cytokines, used individually or added simultaneously to DC cultures, were able to promote IL-2 secretion |
